Laboratory results published in the NIST ThermoML archive (doi:10.1016/j.jct.2007.11.009).

Experiment: xn = mol fraction of the nth substance listed
Conditions: Liquid, Vibrating tube method

CCCCCCCC [octane] + c1ccccc1
mass density [kg/m3]
Conditions	x1 = 0.1097	x1 = 0.2036	x1 = 0.2984	x1 = 0.4069	x1 = 0.5027	x1 = 0.5904	x1 = 0.6989	x1 = 0.7964	x1 = 0.904	x1 = 1
298.15 K, 100 kPa	838.3	813.5	792.3	771.6	755.7	743	729.1	718.2	707.3	698.7
298.15 K, 2130 kPa	839.9	815.2	794	773.3	757.4	744.8	730.9	719.9	709.1	700.4
298.15 K, 4150 kPa	841.6	816.9	795.7	775.1	759.2	746.5	732.6	721.7	710.8	702.2
298.15 K, 6180 kPa	843.3	818.6	797.4	776.8	760.9	748.2	734.3	723.4	712.4	703.8
298.15 K, 8210 kPa	844.9	820.2	799.1	778.5	762.5	749.9	735.9	725	714.1	705.4
298.15 K, 10230 kPa	846.5	821.8	800.7	780.1	764.2	751.5	737.6	726.7	715.7	707
298.15 K, 11250 kPa	847.3	822.7	801.5	780.9	765	752.3	738.4	727.5	716.5	707.8
298.15 K, 12260 kPa	848.1	823.5	802.4	781.7	765.8	753.2	739.2	728.3	717.3	708.6
298.15 K, 14290 kPa	849.7	825.1	803.9	783.4	767.4	754.7	740.8	729.8	718.8	710.1
298.15 K, 16310 kPa	851.2	826.6	805.5	784.9	769	756.3	742.4	731.4	720.4	711.7
298.15 K, 18340 kPa	852.7	828.1	807	786.4	770.5	757.8	743.8	732.9	721.9	713.1
298.15 K, 20370 kPa	854.2	829.6	808.5	788	772	759.3	745.3	734.4	723.3	714.6
298.15 K, 22390 kPa	855.7	831.1	810	789.4	773.4	760.8	746.8	735.8	724.8	715.9
298.15 K, 24420 kPa	857.1	832.6	811.5	790.8	774.9	762.2	748.2	737.2	726.2	717.4
298.15 K, 26450 kPa	858.5	834	812.9	792.3	776.3	763.6	749.6	738.7	727.5	718.8
298.15 K, 28470 kPa	859.9	835.4	814.3	793.7	777.7	765	751	740	728.9	720.1
298.15 K, 29490 kPa	860.6	836.1	815	794.3	778.4	765.7	751.7	740.7	729.6	720.8
298.15 K, 30500 kPa	861.3	836.8	815.7	795	779.1	766.4	752.4	741.4	730.2	721.4
298.15 K, 32530 kPa	862.6	838.1	817	796.4	780.4	767.7	753.7	742.7	731.5	722.7
298.15 K, 34550 kPa	864	839.5	818.4	797.8	781.8	769.1	755	744.1	732.9	724
298.15 K, 36580 kPa	865.3	840.8	819.7	799.1	783.1	770.4	756.4	745.4	734.2	725.3
298.15 K, 38600 kPa	866.6	842.1	821	800.4	784.4	771.7	757.6	746.5	735.4	726.5
298.15 K, 39620 kPa	867.3	842.7	821.6	801	785	772.3	758.2	747.1	736	727.1
308.15 K, 100 kPa	828.4	803.9	783	762.6	747	734.5	720.8	709.9	699.3	690.8
308.15 K, 2130 kPa	830.2	805.7	784.9	764.5	748.8	736.4	722.7	711.8	701.1	692.6
308.15 K, 4150 kPa	832	807.5	786.7	766.3	750.7	738.2	724.5	713.7	703	694.4
308.15 K, 6180 kPa	833.7	809.3	788.5	768.2	752.5	740	726.3	715.5	704.8	696.2
308.15 K, 8210 kPa	835.5	811.1	790.3	770	754.3	741.8	728.1	717.2	706.5	698
308.15 K, 10230 kPa	837.2	812.8	792	771.7	756.1	743.6	729.9	719	708.3	699.7
308.15 K, 11250 kPa	838	813.7	792.9	772.6	756.9	744.4	730.7	719.8	709.1	700.5
308.15 K, 12260 kPa	838.8	814.5	793.7	773.4	757.8	745.3	731.6	720.7	709.9	701.3
308.15 K, 14290 kPa	840.5	816.2	795.4	775.1	759.5	747	733.2	722.3	711.6	703
308.15 K, 16310 kPa	842.1	817.8	797	776.7	761.1	748.6	734.8	723.9	713.1	704.5
308.15 K, 18340 kPa	843.7	819.5	798.7	778.4	762.7	750.2	736.5	725.5	714.8	706.1
308.15 K, 20370 kPa	845.3	821	800.3	780	764.3	751.8	738	727.1	716.3	707.6
308.15 K, 22390 kPa	846.8	822.6	801.8	781.5	765.8	753.3	739.6	728.6	717.8	709.1
308.15 K, 24420 kPa	848.3	824.1	803.4	783.1	767.4	754.8	741.1	730.1	719.3	710.6
308.15 K, 26450 kPa	849.8	825.6	804.9	784.6	768.9	756.3	742.6	731.6	720.8	712
308.15 K, 28470 kPa	851.3	827.1	806.4	786	770.4	757.8	744	733	722.2	713.4
308.15 K, 29490 kPa	852	827.8	807.1	786.8	771.1	758.5	744.8	733.7	722.9	714.1
308.15 K, 30500 kPa	852.7	828.6	807.8	787.5	771.8	759.2	745.5	734.4	723.6	714.8
308.15 K, 32530 kPa	854.2	830	809.2	788.9	773.2	760.7	746.9	735.8	725	716.2
308.15 K, 34550 kPa	855.5	831.4	810.6	790.3	774.6	762	748.3	737.2	726.3	717.5
308.15 K, 36580 kPa	856.9	832.8	812	791.7	776	763.4	749.6	738.5	727.7	718.8
308.15 K, 38600 kPa	858.3	834.2	813.4	793.1	777.3	764.7	750.9	739.9	729	720.2
308.15 K, 39620 kPa	859	834.9	814.1	793.7	778	765.4	751.6	740.6	729.7	720.8
